According to patent publication USRE30886E, “Method and composition for reducing blood glucose levels” (Nippon Shinyaku Company Ltd., priority 1975, dated 1982):

Assays:
[1] = tested on: Sucrose-Administered Rats; assay: Inhibitory action against increase of blood glucose for sucrose-administered rats; assay type: in vivo, Male Sprague Dawley rats; conditions: with 2 g/kg sucrose
Experimental: Male Sprague Dawley rats with body weight of 150 to 200 grams were fasted overnight, and 2 g/kg of sucrose was administered orally by using a stomach tube. The compound of this invention was simultaneously administered in a similar way at the rate of 1 to 100 mg/kg, and blood was drawn from the tail vein of each rat at suitable time intervals and blood glucose levels were measured by a method using glucose oxidase.

[2] = Acute toxicity (LD50) in mice; assay type: in vivo; conditions: mouse, in vivo
mice = assay: Acute toxicity (LD50) in mice; assay type: in vivo
[3] = tested on: Glucose-administered Rats; assay: Inhibitory action against increase of glucose in blood of glucose-administered rats; assay type: in vivo, Male Sprague Dawley rats; conditions: with 2 g/kg glucose; for Blood Glucose Concentration: 5 rats
Experimental: Male Sprague Dawley rats with body weights ranging from 150 to 200 grams were fasted overnight, and then 2 g/kg of glucose was administered orally by using a stomach tube. The compound of this invention was also administered simultaneously in an amount of 10 to 100 mg/kg, and blood was drawn from the tail vein of each rat at suitable time intervals, and blood glucose levels were measured according to a method using glucose oxidase (Blood Sugar Test, TC-M-III, Boehringer Mannheim A.G.).

humans and other animals = assay: Ability to inhibit or reduce the increase of glucose levels in humans and other animals; assay type: in vivo; conditions: upon administration of glucose or a glucose producing carbohydrate
Starch-Administered Rats = assay: Inhibitory action against increase of blood glucose for starch-administered rats; assay type: in vivo, Male Sprague Dawley rats; conditions: with 1 g/kg starch; for Blood Glucose Concentration: 5 rats
Experimental: Male Sprague Dawley rats with body weight of 150 to 200 grams were fasted overnight, and 1 g/kg of starch was administered orally by using a stomach tube. The compound of this invention was simultaneously administered at the dose of 10 to 100 mg/kg, and blood was drawn from the tail vein of each rat and blood glucose levels were examined by a method using glucose oxidase.

rats = assay: Antidiabetic action model: glucose level in blood of rats given glucose orally; assay type: in vivo, Male Sprague Dawley rats; conditions: 1 to 1000 mg/kg, with glucose 0.5 to 4 g/kg orally
Experimental: Male Sprague Dawley rats of body weight of 150 to 200 grams are fasted overnight and glucose is then administered orally at the rate of 0.5 to 4 g/kg by using a stomach tube. Blood is drawn from the tail vein of each rat at suitable time intervals to determine glucose level in the blood. The glucose content in the blood increases rapidly to cause hyperglycemia.

healthy = assay: Glucose level in the blood of healthy man after oral carbohydrate; assay type: in vivo, human; conditions: 1 to 1000 mg/kg orally, with 50 to 100 grams of glucose
lipid biosynthesis = assay: Ability to inhibit lipid biosynthesis
[4] = 10 mg/kg oral, 0 min after administration
[5] = 10 mg/kg oral, 15 min after administration
[6] = 10 mg/kg oral, 30 min after administration
[7] = 10 mg/kg oral, 60 min after administration
[8] = 100 mg/kg oral, 0 min after administration
[9] = 100 mg/kg oral, 15 min after administration
[10] = 100 mg/kg oral, 30 min after administration
[11] = 100 mg/kg oral, 60 min after administration

## OC[C@H]1NC[C@H](O)[C@@H](O)[C@@H]1O [compound of this invention, 2(R),3(R),4(R),5(S)-2-hydroxymethyl-3,4,5-trihydroxypiperidine]
[1]; 1 mg/kg oral, 0 min after administration, 5 rats
  Blood Glucose Concentration: 69 mg %
[1]; 1 mg/kg oral, 15 min after administration, 5 rats
  Blood Glucose Concentration: 98 mg %
[1]; 1 mg/kg oral, 30 min after administration, 5 rats
  Blood Glucose Concentration: 121 mg %
[1]; 1 mg/kg oral, 60 min after administration, 5 rats
  Blood Glucose Concentration: 127 mg %
[1]; 10 mg/kg oral, 0 min after administration, 6 rats
  Blood Glucose Concentration: 47 mg %
[1]; 10 mg/kg oral, 15 min after administration, 6 rats
  Blood Glucose Concentration: 57 mg %
[1]; 10 mg/kg oral, 30 min after administration, 6 rats
  Blood Glucose Concentration: 52 mg %
[1]; 10 mg/kg oral, 60 min after administration, 6 rats
  Blood Glucose Concentration: 97 mg %
[1]; 10 mg/kg
  Increase of glucose in the blood: totally inhibited
[1]; 100 mg/kg oral, 0 min after administration, 5 rats
  Blood Glucose Concentration: 52 mg %
[1]; 100 mg/kg oral, 15 min after administration, 5 rats
  Blood Glucose Concentration: 66 mg %
[1]; 100 mg/kg oral, 30 min after administration, 5 rats
  Blood Glucose Concentration: 63 mg %
[1]; 100 mg/kg oral, 60 min after administration, 5 rats
  Blood Glucose Concentration: 64 mg %
[2]; intravenous administration
  LD50: > 800 mg/kg
[2]; oral administration
  LD50: > 1200 mg/kg
mice
  toxicity: very low
[3]; [4]
  Blood Glucose Concentration: 59 mg %
[3]; [5]
  Blood Glucose Concentration: 100 mg %
[3]; [6]
  Blood Glucose Concentration: 108 mg %
[3]; [7]
  Blood Glucose Concentration: 107 mg %
[3]; [8]
  Blood Glucose Concentration: 52 mg %
[3]; [9]
  Blood Glucose Concentration: 59 mg %
[3]; [10]
  Blood Glucose Concentration: 58 mg %
[3]; [11]
  Blood Glucose Concentration: 63 mg %
[3]; 100 mg/kg
  Increase of glucose in the blood: totally inhibited
Humans and other animals
  increase of glucose levels: inhibit or reduce the increase of glucose levels
Starch-Administered Rats; [4]
  Blood Glucose Concentration: 53 mg %
Starch-Administered Rats; [5]
  Blood Glucose Concentration: 67 mg %
Starch-Administered Rats; [6]
  Blood Glucose Concentration: 80 mg %
Starch-Administered Rats; [7]
  Blood Glucose Concentration: 83 mg %
Starch-Administered Rats; [8]
  Blood Glucose Concentration: 52 mg %
Starch-Administered Rats; [9]
  Blood Glucose Concentration: 57 mg %
Starch-Administered Rats; [10]
  Blood Glucose Concentration: 63 mg %
Starch-Administered Rats; [11]
  Blood Glucose Concentration: 59 mg %
Starch-Administered Rats; 100 mg/kg
  Increase of glucose in the blood: totally inhibit increase of glucose in the blood
rats
  rise of the glucose content in the blood: rise of the glucose content in the blood is inhibited
healthy
  rise of the glucose content in the blood: rise of the glucose content in the blood is inhibited corresponding to the dosage
Lipid biosynthesis
  inhibition of lipid biosynthesis: inhibit lipid biosynthesis
